“Also recorded” adds a separate entry of the source.
How the values were obtained:
[1] = test system: mouse macrophages RAW264.7; assay: effect on proliferation activity of mouse macrophages RAW264.7; format: cell-based; settings: n=3, FIG. 4
[2] = test system: PGE2 secreted by mouse macrophages RAW264.7 induced by LPS; assay: PGE2 secreted by LPS-induced RAW264.7 macrophages (ELISA); format: cell-based; settings: for inhibition of PGE2 secreted by RAW264.7 induced by LPS: LPS 100 ng/mL, 24 h, FIGS. 7 and 9
Procedure: (§1) Effects of myricanol derivatives on the expression of inflammatory factors such as IL-6, TNF-α, PEG2 secreted by a mouse macrophage cell strain RAW 264.7 induced by bacterial lipopolysaccharide (hereinafter referred to as LPS) stimulus: A pre-prepared cell suspension was inoculated in a 96-well plate at 15000 cells/well and 100 μl/well and cultured overnight in an incubator with 5% CO2 at 37° C. At 80% cell confluence, the original culture medium was discarded, and each well was added with 100 μl of prepared drug solution to be tested with a different concentration, cultured for 1 h, and then added with a LPS solution, where the final concentration of LPS in the culture system was 100 ng/mL. Each concentration was set with 3 parallel wells, and a cell control group (no drug and no solvent) and a blank medium control group (no cells, a well for zero adjustment) were set. They were cultured for another 24 h. Cell culture supernatants were aspirated, and an R&D ELISA detection kit (M6000B; MTA00B; VAL601) was used for detecting the expression of the inflammatory factors such as IL-6, TNF-α, and PEG2 in each group. Cell proteins were collected, and a […] method was used for detecting COX-2 protein expression in each group.

[3] = test system: COX2 protein expressed by mouse macrophages RAW264.7; assay: COX2 protein expression in LPS-induced RAW264.7 macrophages (blot); format: cell-based; settings: FIG. 8
Procedure: as §1

[4] = test system: IL-6 secreted by mouse macrophages RAW264.7 induced by LPS; assay: IL-6 secreted by LPS-induced RAW264.7 macrophages (ELISA); format: cell-based; settings: LPS 100 ng/mL, 24 h; FIG. 5
Procedure: as §1

SD rats = assay: acute toxicity, single oral dose; format: in vivo; settings: single intragastric administration, 14 days observation
Text: Trial method: 30 SD rats, half male and half female, were used. The average weight was 160-200 g for female rats and 180-220 g for male rats when grouped. An individual weight should be within ±20% of the average weight. Before the test, animals needed to accommodate to the environment for at least 5 days, and healthy rats (female rats should be not pregnant) were selected as test animals. Matter detected during the accommodation period mainly was: whether the rats were consistent with quality indexes required in the order; detection of general conditions; and whether the weight was within the weight range required by the test. Unqualified abnormal animals were excluded from the test. A single dosage was orally administered to rats at a low, medium, or high dose. […] A control group was set with the oral administration of the same volume of solvent.
The rats were observed about 0-2 h and 4-6 h after each administration. If a toxicity symptom occurs, the rats may be observed more times. (2) Gross anatomical observation: on the 14th day of the test, all surviving rats in each group were dissected and observed, and for administration sites and gross dissection, abnormal organs and tissues which were observed and found to be potentially related to test samples were photographed and recorded. (3) Disposal of dying animals: status of rats and observation time were recorded, and their weights were measured. (4) Disposal of dead animals: the time of death or when a rat was found dead were recorded. The rat was measured for weight before quickly dissected for gross observation and speculated for a cause of death.

Molecule | effect on proliferation activity of mouse macrophages RAW264.7 ([1]; 30 μM) | inhibition of PGE2 secreted by RAW264.7 induced by LPS [2] | inhibition of protein expression of IBD-related COX2 [3] | inhibition of LPS-induced IL-6 secretion of RAW264.7 cells [4] | also measured
COc1c2cc(c(OCc3ccccc3)c1OC)CCCCC(O)CCc1ccc(O)c-2c1 (centres unmarked) [compound C, 5-benzyloxy myricanol] | no significant effects | – | – | – | –
COc1c2cc(c(O)c1OC)CCCC[C@@H](O)CCc1ccc(O)c-2c1 [myricanol, reference compound] | – | strong ability to inhibit | can inhibit | – | PGE2 ([2]; LPS + 20 μM, LPS alone 1154.90 ± 84.20, control −407.37 ± 57.67): 904.98 ± 18.02 pg/mL
COc1c2cc(c(OC(C)=O)c1OC)CCCCC(O)CCc1ccc(OC(C)=O)c-2c1 (centres unmarked) [compound A, 5,17-diacetoxy myricanol] | – | significant effect of inhibiting PGE2; also recorded: strong ability to inhibit | can inhibit | very strong effects of inhibiting | Test Endpoint (toxic side effects) (SD rats; 100 mg/kg): No obvious toxic; Test Endpoint (toxic side effects) (SD rats; 300 mg/kg): No obvious toxic; Test Endpoint (toxic side effects) (SD rats; 1000 mg/kg): No obvious toxic; effect on proliferation activity of mouse macrophages RAW264.7 ([1]; 40 μM): no significant effects
COc1c2cc(c(OC(C)=O)c1OC)CCCCC(O)CCc1ccc(O)c-2c1 (centres unmarked) [compound G, 5-acetoxy myricanol] | – | significant effect of inhibiting PGE2; also recorded: strong ability to inhibit | can inhibit | very strong effects of inhibiting | Test Endpoint (toxic side effects) (SD rats; 100 mg/kg): No obvious toxic; Test Endpoint (toxic side effects) (SD rats; 300 mg/kg): No obvious toxic; Test Endpoint (toxic side effects) (SD rats; 1000 mg/kg): No obvious toxic; COX2 protein expression inhibition compared with myricanol [3]: better inhabitation effects than myricanol; effect on proliferation activity of mouse macrophages RAW264.7 ([1]; 40 μM): no significant effects
C=CCOc1ccc2cc1-c1cc(c(OCC=C)c(OC)c1OC)CCCCC(O)CC2 (centres unmarked) [compound D, 5,17-diallyloxy myricanol] | no significant effects | – | – | – | –
C=CCOc1ccc2cc1-c1cc(c(OCC=C)c(OC)c1OC)CCCCC(=O)CC2 [compound F, 5,17-allyloxy myricanone] | – | – | – | – | effect on proliferation activity of mouse macrophages RAW264.7 ([1]; 80 μM): no significant effects
C=CCOc1c2cc(c(OC)c1OC)-c1cc(ccc1O)CCC(O)CCCC2 (centres unmarked) [compound E, 5-allyloxy myricanol] | no significant effects | – | – | – | –
5-n-propoxy myricanol [compound B] | no significant effects | significant effect of inhibiting PGE2; also recorded: strong ability to inhibit | can inhibit | very strong effects of inhibiting | –

Reference: patent publication US11602514B2, “Medicament having anti-inflammatory bowel disease function, and preparation method therefor and application thereof” (SUZHOU PHARMAVAN CO., LTD, priority 2018, dated 2023)
